The values that follow come from patent US20100173835A1, “Peptides for Treatment of Obesity” (Novo Nordisk A/S, priority 2008, published 2010).

Molecules are shown by their SMILES. Converted amounts (≈) assume the structure as drawn. Where two headings read alike, the source gives them in different places. *1 amine or outer side, *2 acyl side, *3 side chain or, on linkers, in order; H or OH if unused. Where a SMILES comes first, the peptide text is derived from it. Bridges are numbered along the chain shown (N, C = ends). [ ]: non-standard residue; d: D form. The star is where a group is joined. Palmitoyl(16-(5-tetrazolyl)) = O=C(CCCCCCCCCCCCCCCc1nnn[nH]1)*; Lys(CH2CO2H)2 = N[C@@H](CCCCN(CC(=O)O)CC(=O)O)C(=O)O; X1 = O=C(O)CN(CC(=O)O)C[C@H](N[*:1])C(=O)[*:2]; C20 diacid = O=C(O)CCCCCCCCCCCCCCCCCCC(=O)*; Hyp = O=C(O)[C@@H]1C[C@@H](O)CN1; NTA = O=C(O)CN(CC(=O)O)CC(=O)*; Nle = CCCC[C@H](N)C(=O)O; Dap = NC[C@H](N)C(=O)O; AEEA = NCCOCCOCC(=O)O; βAla = NCCC(=O)O

Series [1] is described as follows: Solubility data of compounds in water over the pH range. The settings on record: read-out: Conc (solubility in water). Type of series: physicochemical.
Another series deals with T1, MC1 receptor (Homo sapiens, UniProt Q01726).
T1 construct: expressed in transfected cells
T1 sequence (Q01726 whole entry): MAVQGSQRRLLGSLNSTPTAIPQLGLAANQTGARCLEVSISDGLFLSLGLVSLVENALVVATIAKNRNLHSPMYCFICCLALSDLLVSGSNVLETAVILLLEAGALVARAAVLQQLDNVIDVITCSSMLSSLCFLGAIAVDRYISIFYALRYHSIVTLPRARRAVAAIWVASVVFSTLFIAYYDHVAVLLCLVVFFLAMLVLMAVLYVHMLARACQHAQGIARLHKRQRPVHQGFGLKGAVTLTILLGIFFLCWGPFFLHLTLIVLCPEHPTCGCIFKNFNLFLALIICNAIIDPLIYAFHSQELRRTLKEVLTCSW
Nature of the series: Assay (IV) Melanocortin Receptor 1 (MC1) binding assay. Here is the method: Assay (IV)—Melanocortin Receptor 1 (MC1) Binding Assay
The MC1 receptor binding assay is performed on BHK cell membranes stably expressing the MC1 receptor. The assay is performed in a total volume of 250 NI: 25 μl of ^125NDP-α-MSH (22 pM in final concentration), 25 μl of test compound/control and 200 μl of cell membrane (25 μg/ml). Test compounds are dissolved in DMSO. Radioactively labeled ligand, membranes and test compounds are diluted in buffer: 25 mM HEPES, pH 7.4, 0.1 mM CaCl2, 1 mM MgSO4, 1 mM EDTA, 0.1% HSA and 0.005% Tween™ 20. Alternatively, HSA may be substituted with ovalbumin. The samples are incubated at 30° C. for 90 min. in Costar round-bottom microtiter plates. Incubation is terminated by filtration on a Packard harvester filtermate. Rapid filtration through Packard Unifilter-96 GF/B filters pre-treated with polyethylenimine (PerkinElmer 6005277). The filters are washed with ice-cold 0.9% NaCl 8-10 times. The plates is air dried at app. 55° C. for 30 min, and 50 μl Microscint 0 (Packard, cat. No. 6013616) is added to each well. The plates are counted in a Topcounter (1 min/well).
(§1) The data are analysed by non-linear regression analysis of binding curves, using the Windows™ program GraphPad™ Prism (GraphPad Software, USA).

The next series addresses T2, human MC4 receptor (Homo sapiens, UniProt P32245).
T2 construct: expressed in transfected cells
Nature of the series: Assay (V) Melanocortin Receptor 4 (MC4) binding assay. The conditions noted are these: 125NDP-α-MSH binding, BHK cell membranes. Here is the method:
Assay (V)—Melanocortin Receptor 4 (MC4) Binding Assay
In vitro ^125NDP-α-MSH binding to recombinant BHK cells expressing human MC4 receptor (filtration assay).
The assay is performed in 5 ml minisorb vials (Sarstedt No. 55.526) or in 96-well filterplates (Millipore MADVN 6550), and using BHK cells expressing the human MC4 receptor using BHK cells stably expressing the human MC4 receptor. The membranes were prepared from frozen or fresh cells that were homogenized in 20 mM HEPES pH 7.1, 5 mM MgCl2 and 1 mg/ml bacitracin and centrifuged at 15000 rpm at 4° C., 10 min in a Sorvall RC 5B plus, SS-34 rotor. The supernatant was discarded, and the pellets were re-suspended in buffer, homogenized and centrifuged two more times. The final pellets were resuspended in the buffer mentioned above, and the protein concentration was measured and adjusted with buffer to 14 to 17 mg/ml and the membrane preparation were kept at −80° C. until assay. The assay was run directly on a dilution of this cell membrane suspension, without any further preparation. The BHK cell membranes are kept at −80° C. until assay, and the assay is run directly on a dilution of this cell membrane suspension, without further preparation. The suspension is diluted to give maximally 10% specific binding, i.e. to approx. 50-100 fold dilution. The assay is performed in a total volume of 200 μl: 50 μl of cell suspension, 50 μl of ^125NDP-α-MSH (≈79 pM in final concentration), 50 μl of test compound and 50 μl binding buffer (pH 7) mixed and incubated for 2 h at 25° C. [binding buffer: 25 mM HEPES, pH 7.0, 1 mM CaCl2, 1 mM MgSO4, 1 mM EGTA, 0.02% Bacitracin, 0.005% Tween™ 20 and 0.1% HSA or, alternatively, 0.1% ovalbumin (Sigma; catalogue No. A-5503)]. Test compounds are dissolved in DMSO and diluted in binding buffer. Radiolabelled ligand and membranes are diluted in binding buffer. The incubation is stopped by dilution with 2×100 μl ice-cold 0.9% NaCl. The radioactivity retained on the filters is counted using a Cobra II auto gamma counter.
as §1

Setting [2] is: 125NDP-α-MSH binding, BHK cell membranes, read-out: Assay (IV) MC1 Ki.

T2 sequence (P32245 whole entry): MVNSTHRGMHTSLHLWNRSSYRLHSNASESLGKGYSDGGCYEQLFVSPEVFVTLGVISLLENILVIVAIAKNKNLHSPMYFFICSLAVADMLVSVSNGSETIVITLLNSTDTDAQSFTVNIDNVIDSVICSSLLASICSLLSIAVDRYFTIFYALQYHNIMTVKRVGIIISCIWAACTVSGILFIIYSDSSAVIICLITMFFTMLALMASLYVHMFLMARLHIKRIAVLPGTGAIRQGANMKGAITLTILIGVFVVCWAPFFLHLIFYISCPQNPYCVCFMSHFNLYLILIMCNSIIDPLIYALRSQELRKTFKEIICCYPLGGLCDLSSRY

Turning to `CCCC[C@H](NC(=O)[C@H](CCCCN(CC(=O)O)CC(=O)O)NC(=O)[C@H](Cc1c[nH]cn1)NC(=O)[C@H](CCC(N)=O)NC(=O)[C@H](CO)NC(=O)[C@H](CO)NC(=O)[C@H](CCC(N)=O)NC(=O)[C@@H](CO)NC(=O)CNC(=O)COCCOCCNC(=O)COCCOCCNC(=O)CCCCCCCCCCCCCCCc1nnn[nH]1)C(=O)N[C@H]1CCC(=O)NCCCC[C@@H](C(N)=O)NC(=O)[C@H](Cc2c[nH]c3ccccc23)NC(=O)[C@H](CCCNC(=N)N)NC(=O)[C@@H](Cc2ccccc2)NC(=O)[C@@H]2C[C@@H](O)CN2C1=O` [Example 3, (2-{2-[2-(2-{2-[16-(Tetrazol-5-yl)hexadecanoylamino]ethoxy}ethoxy)acetylamino]ethoxy}ethoxy)acetyl-Gly-D-Ser-Gln-Ser-Ser-Gln-His-Lys(biscarboxymethyl)-Nle-c[Glu-Hyp-D-Phe-Arg-Trp-Lys]-NH2] ({Palmitoyl(16-(5-tetrazolyl))-AEEA-AEEA}-G[dS]QSSQH[Lys(CH2CO2H)2][Nle]E[Hyp][dF]RWK-NH2; lactam 10-15), the solubility at 3 days in series [1] (pH 2.95, pH 2.95) was 435 µM (≈ 1100 µg/mL); in series [1] (pH 3.88, pH 3.88) it was 570 µM (≈ 1440 µg/mL); in series [1] (pH 4.82, pH 4.82) it was 429 µM (≈ 1080 µg/mL); in series [1] (pH 4.84, pH 4.84) it was 324 µM (≈ 818 µg/mL); in series [1] (pH 5.18, pH 5.18) it was 75 µM (≈ 189 µg/mL); in series [1] (pH 6.1, pH 6.10), 39 µM (≈ 98.5 µg/mL). The solubility at 3 days worked out at 87 µM (≈ 220 µg/mL) in series [1] (pH 6.95, pH 6.95); 190 µM (≈ 480 µg/mL) in series [1] (pH 7.15, pH 7.15); 256 µM (≈ 646 µg/mL) in series [1] (pH 7.24, pH 7.24); 316 µM (≈ 798 µg/mL) in series [1] (pH 7.29, pH 7.29). In addition, the Ki was above 10000 nM at MC1 receptor and 1.95 nM on human MC4 receptor (Assay (V) MC4 [Ki] (nM)).

For `CCCC[C@H](NC(=O)[C@H](CCCCN(CC(=O)O)CC(=O)O)NC(=O)[C@H](Cc1c[nH]cn1)NC(=O)[C@H](CCC(N)=O)NC(=O)[C@H](CO)NC(=O)CNC(=O)COCCOCCNC(=O)CCCCCCCCCCCCCCCc1nnn[nH]1)C(=O)N[C@H]1CCC(=O)NCCCC[C@@H](C(N)=O)NC(=O)[C@H](Cc2c[nH]c3ccccc23)NC(=O)[C@H](CCCNC(=N)N)NC(=O)[C@@H](Cc2ccccc2)NC(=O)[C@@H]2C[C@@H](O)CN2C1=O` [Example 7, (2-{2-[16-(Tetrazol-5-yl)hexadecanoylamino]ethoxy}ethoxy)acetyl-Gly-Ser-Gln-His-Lys(biscarboxymethyl)-Nle-c[Glu-Hyp-D-Phe-Arg-Trp-Lys]-NH2] ({Palmitoyl(16-(5-tetrazolyl))-AEEA}-GSQH[Lys(CH2CO2H)2][Nle]E[Hyp][dF]RWK-NH2; lactam 7-12), the solubility at 3 days in series [1] (pH 2.94, pH 2.94) turned out to be 536 µM (≈ 1110 µg/mL); in series [1] (pH 3.28, pH 3.28), 476 µM (≈ 989 µg/mL); in series [1] (pH 3.59, pH 3.59), 398 µM (≈ 827 µg/mL); in series [1] (pH 3.95, pH 3.95), 276 µM (≈ 573 µg/mL); in series [1] (pH 4.75, pH 4.75), 42 µM (≈ 87.3 µg/mL); in series [1] (pH 5.64, pH 5.64), 19 µM (≈ 39.5 µg/mL). Besides, the solubility at 3 days in series [1] (pH 6.48, pH 6.48) is 18 µM (≈ 37.4 µg/mL); in series [1] (pH 6.98, pH 6.98), 35 µM (≈ 72.7 µg/mL); in series [1] (pH 7.48, pH 7.48), 262 µM (≈ 544 µg/mL); in series [1] (pH 7.78, pH 7.78), 391 µM (≈ 812 µg/mL). In addition, the Ki on MC1 receptor amounted to 8710 nM; at human MC4 receptor (Assay (V) MC4 [Ki] (nM)), 1.6 nM.

For the compound `CCCC[C@H](NC(=O)[C@H](CNC(=O)CN(CC(=O)O)CC(=O)O)NC(=O)[C@H](Cc1ccc(O)cc1)NC(=O)[C@H](CCC(N)=O)NC(=O)[C@H](CO)NC(=O)CNC(=O)COCCOCCNC(=O)CCCCCCCCCCCCCCCc1nnn[nH]1)C(=O)N[C@H]1CCC(=O)NCCCC[C@@H](C(N)=O)NC(=O)[C@H](Cc2c[nH]c3ccccc23)NC(=O)[C@H](CCCNC(=N)N)NC(=O)[C@@H](Cc2ccccc2)NC(=O)[C@@H]2C[C@@H](O)CN2C1=O` [Example 19, (2-{2-[16-(Tetrazol-5-yl)hexadecanoylamino]ethoxy}ethoxy)acetyl-Gly-Ser-Gln-Tyr-Dap(BCMA)-Nle-c[Glu-Hyp-D-Phe-Arg-Trp-Lys]-NH2] ({Palmitoyl(16-(5-tetrazolyl))-AEEA}-GSQY[Dap](NTA)[Nle]E[Hyp][dF]RWK-NH2; lactam 7-12), the results for the Ki on MC1 receptor (setting [2]) and on human MC4 receptor (read-out: Assay (V) MC4 [Ki]) were above 10000 nM and 3.9 nM, respectively.

With `CCCC[C@H](NC(=O)CCNC(=O)[C@H](CCCCN(CC(=O)O)CC(=O)O)NC(=O)[C@H](Cc1c[nH]cn1)NC(=O)[C@H](CCC(N)=O)NC(=O)[C@H](CO)NC(=O)[C@H](CO)NC(=O)[C@H](CCC(N)=O)NC(=O)[C@@H](CO)NC(=O)CNC(=O)COCCOCCNC(=O)COCCOCCNC(=O)CCCCCCCCCCCCCCCCCCC(=O)O)C(=O)N[C@H]1CCC(=O)NCCCC[C@@H](C(N)=O)NC(=O)[C@H](Cc2c[nH]c3ccccc23)NC(=O)[C@H](CCCNC(=N)N)NC(=O)[C@@H](Cc2ccccc2)NC(=O)[C@@H]2C[C@@H](O)CN2C1=O` [Example 22, {2-[2-(2-{2-[2-(19-Carboxynonadecanoylamino)ethoxy]ethoxy}acetylamino)ethoxy]ethoxy}acetyl-Gly-D-Ser-Gln-Ser-Ser-Gln-His-Lys(biscarboxymethyl)β-Ala-Nle-c[Glu-Hyp-D-Phe-Arg-Trp-Lys]-NH2] ({C20 diacid-AEEA-AEEA}-G[dS]QSSQH[Lys(CH2CO2H)2][βAla][Nle]E[Hyp][dF]RWK-NH2; lactam 11-16), the Ki at MC1 receptor was above 10000 nM; on human MC4 receptor (Assay (V) MC4 [Ki] (nM)), 0.55 nM.

As to `CCCC[C@H](NC(=O)[C@H](CN(CC(=O)O)CC(=O)O)NC(=O)[C@H](Cc1ccc(O)cc1)NC(=O)[C@H](CCC(N)=O)NC(=O)[C@H](CO)NC(=O)CNC(=O)COCCOCCNC(=O)CCCCCCCCCCCCCCCc1nnn[nH]1)C(=O)N[C@H]1CCC(=O)NCCCC[C@@H](C(N)=O)NC(=O)[C@H](Cc2c[nH]c3ccccc23)NC(=O)[C@H](CCCNC(=N)N)NC(=O)[C@@H](Cc2ccccc2)NC(=O)[C@@H]2C[C@@H](O)CN2C1=O` [Example 23, (2-{2-[16-(Tetrazol-5-yl)hexadecanoylamino]ethoxy}ethoxy)acetyl-Gly-Ser-Gln-Tyr-Dap(biscarboxymethyl)-Nle-c[Glu-Hyp-D-Phe-Arg-Trp-Lys]-NH2] ({Palmitoyl(16-(5-tetrazolyl))-AEEA}-GSQY[X1][Nle]E[Hyp][dF]RWK-NH2; lactam 7-12), the results for the Ki on MC1 receptor (setting [2]) and at human MC4 receptor (read-out: Assay (V) MC4 [Ki]) were above 10000 nM and 7.9 nM, respectively.

By solubility is commonly meant the concentration that dissolves in the medium under given conditions. Broadly, the Ki is the dissociation constant of the complex between target and ligand, obtained from inhibition or displacement.
